Data: publication PMC8113538, “Acute toxicity analysis of an inhibitor of BCL2, Disarib, in rats” (Scientific Reports, 2021)

Assays:
[1] = tested on: interaction of BCL2 with BAX; parameters: method as in PMID 28223017; conditions: cited from earlier work
[2] = Disarib solubility assay (shake flask method, HPLC); type: physicochemical; conditions: Disarib 100 µM
Method: The solubility of Disarib was determined by the shake flask method, as described earlier. Briefly, Disarib (100 μM) was dissolved in various solvents such as alcohol (40, 60, 80 and 100%), acid (0.1, 0.3 and 0.6 N HCl) and DMSO (25, 50, 75 and 100%). Further, solubility of Disarib was also tested in a combination of alcohol (40, 60%) and acid (0.1, 0.3 N). The suspension was vortexed 2–3 min and kept in a water bath for 5 min, as described before[25],[26],[39]. In each case, the samples were diluted in acetonitrile and analyzed using HPLC in acetonitrile:water gradient[27],[40]. The area under the curve (AUC) was determined by using the software LabSolutions, Shimadzu (Japan). The values used for plotting in GraphPad Prism (ver 5.1) softwarewere the mean of three independent experiments. The samples were analyzed by HPLC using the Shimadzu HPLC system. LC was carried out on the C18 analytical column. The mobile phase was the gradient of acetonitrile and water. Disarib specific peaks were detected at 232 nm. The injection volume was 20 μl, and the flow rate was 1.2 ml/min. The standard curves were constructed by plotting the peak area vs. concentration of Disarib[40].

[3] = tested on: Wistar rats; assay: Haematological analysis after single oral dose; type: in vivo, Wistar rats (Rattus norvegicus); conditions: for platelet count vs control / Eosinophils / MCH (mean corpuscular haemoglobin) / MCHC (mean corpuscular haemoglobin concentration) / MCV (mean cell volume) / Monocytes / PCV (packed cell volume): Wistar rats
Method: After 14 days of Disarib treatment, two animals from each group were sacrificed using CO2 asphyxiation, and blood was collected in EDTA-coated vials by heart puncture. Red blood cells (RBC), white blood cells (WBC), platelet counts (PLT), packed cell volume (PCV), hemoglobin (HGB), mean cell volume (MCV), mean corpuscular hemoglobin (MCH), mean corpuscular hemoglobin concentration (MCHC), lymphocytes, neutrophils, eosinophils and monocytes were analyzed as described before[28],[31],[43]. Analysis of blood samples was performed at Rohana Veterinary Diagnostic Lab, Bangalore, India.

[4] = tested on: interaction of BCL2 with BAK; parameters: method as in PMID 28223017; conditions: cited from earlier work
[5] = tested on: BCL2; parameters: method as in PMID 28223017, PMID 27693384; conditions: cited from earlier work
[6] = tested on: mice; conditions: cited from earlier work
[7] = tested on: Wistar rats; assay: Single-dose acute toxicity / LD50 determination with general observation; type: in vivo, Wistar rats (Rattus norvegicus)
Method: All the studies were designed according to the guidelines of the Central Drug Standard Control Organization (Schedule-Y-CDSCO, Appendix III), India (https://cdsco.gov.in/opencms/opencms/en/Drugs/New-Drugs/). Single-dose toxicity analysis was performed in male Wistar rats. Animals were segregated in groups of five, and Disarib was administered using oral gavage (100, 1000, 2000 mg/kg b. wt.). Carboxymethyl cellulose, used for preparing Disarib, served as vehicle control to feed control animals. Mortality, general appearance, and behavior were initially observed for 24 h. Animals were further observed for 14 days and were further subjected to toxicity analysis.
The median lethal dose was determined in male Wistar rats. […] Disarib was orally administered after making solution using carboxymethyl cellulose (100, 1000, 2000 mg/kg), and lethality was evaluated over 14 days after treatment. Carboxymethyl cellulose treated animals served as vehicle control.
General cage-side examination of the treated and control animals were performed every day during the experiment. General behavior, appearance, skin, hairs, secretion (lachrymation), and death were evaluated daily, according to the guidelines of CDSCO, India[41],[42].
Body weight was recorded on every 4th day from the date of administration of Disarib up to […]. Food and water consumption were monitored every day from the date of administration of the compound. During the present study, on every alternate days ~ 250 g food pellet and ~ 500 ml water were given to each cage (control and treatment groups).

[8] = 100 mg/kg oral, day 14, animal a
[9] = 100 mg/kg oral, day 14, animal b
[10] = 1000 mg/kg oral, day 14, animal a
[11] = 1000 mg/kg oral, day 14, animal b
[12] = 2000 mg/kg oral, day 14, animal a
[13] = 2000 mg/kg oral, day 14, animal b
[14] = Wistar rats, 100, 1000, 2000 mg/kg oral, day 14

O=C1Nc2ccccc2/C1=C/c1c(-c2ccc(Br)cc2)nc2sc(Cc3ccc(Cl)cc3)nn12 [Disarib]
disruption of BCL2-BAX interaction [1]: did not disrupt the interaction of BCL2 with BAX | solubility in HCl ([2]; 0.1, 0.3 and 0.6 N HCl tested): soluble only in higher acidic conditions such as 0.3 N HCl | DMSO concentration giving complete dissolution ([2]; HPLC at 232 nm): > 75% | solubility in alcohol in combination with HCl ([2]; alcohol 40, 60% with HCl): soluble in 40% alcohol and 0.3 and 0.6 N HCl | platelet count vs control ([3]; 100 mg/kg oral, day 14): such a difference was not observed | Eosinophils [3, 8]: 1.0% | MCH (mean corpuscular haemoglobin) [3, 8]: 21.9 pg | MCHC (mean corpuscular haemoglobin concentration) [3, 8]: 36.5% | MCV (mean cell volume) [3, 8]: 60.2 fL | Monocytes [3, 8]: 3.5% | PCV (packed cell volume) [3, 8]: 40.0% | Eosinophils [3, 9]: 1.2% | MCH (mean corpuscular haemoglobin) [3, 9]: 22.0 pg | MCHC (mean corpuscular haemoglobin concentration) [3, 9]: 33.0% | MCV (mean cell volume) [3, 9]: 66.6 fL | Monocytes [3, 9]: 4.2% | PCV (packed cell volume) [3, 9]: 38.4% | platelet count vs control ([3]; 1000 mg/kg b. wt. oral, day 14): marginal variation | Eosinophils [3, 10]: 1.0% | MCH (mean corpuscular haemoglobin) [3, 10]: 21.2 pg | MCHC (mean corpuscular haemoglobin concentration) [3, 10]: 32.3% | MCV (mean cell volume) [3, 10]: 65.7 fL | Monocytes [3, 10]: 3.2% | PCV (packed cell volume) [3, 10]: 40.2% | Eosinophils [3, 11]: 1.2% | MCH (mean corpuscular haemoglobin) [3, 11]: 21.9 pg | MCHC (mean corpuscular haemoglobin concentration) [3, 11]: 27.9% | MCV (mean cell volume) [3, 11]: 78.6 fL | Monocytes [3, 11]: 8.1% | PCV (packed cell volume) [3, 11]: 36.9% | platelet count vs control ([3]; 2000 mg/kg oral, day 14): such a difference was not observed | Eosinophils [3, 12]: 1.0% | MCH (mean corpuscular haemoglobin) [3, 12]: 21.2 pg | MCHC (mean corpuscular haemoglobin concentration) [3, 12]: 33.4% | MCV (mean cell volume) [3, 12]: 63.7 fL | Monocytes [3, 12]: 2.4% | PCV (packed cell volume) [3, 12]: 41.2% | Eosinophils [3, 13]: 1.1% | MCH (mean corpuscular haemoglobin) [3, 13]: 20.7 pg | MCV (mean cell volume) [3, 13]: 63.3 fL | Monocytes [3, 13]: 3.0% | PCV (packed cell volume) [3, 13]: 43.3% | HGB content vs control [3, 14]: no significant difference | WBC counts vs control [3, 14]: no significant difference | lymphocytes count vs control [3, 14]: no significant difference | neutrophils count vs control [3, 14]: no significant difference | total number of RBC vs control [3, 14]: no significant difference | disruption of BCL2-BAK interaction [4]: disruption of the interaction of BCL2 with its proapoptotic partner BAK | interaction with BCL2 [5]: specifically interacted with BCL2 | visible toxicity ([6]; highest dose 2000 mg/kg oral): did not cause any visible toxicity | LD50 ([6]; oral route): > 2000 mg/kg | platelet count ([6]; oral, even at the highest dose): did not affect the platelet count | food and water consumption ([7]; Wistar rats, 100, 1000, 2000 mg/kg oral, assessed daily): no difference in eating and drinking habits | cage-side signs (behavior, appearance, lachrymation, locomotion, hair, skin) ([7]; Wistar rats, 100, 1000, 2000 mg/kg oral, daily examination): comparable to the vehicle control group | body weight ([7]; Wistar rats, 100, 1000, 2000 mg/kg oral, weighed every 4 days up to 32 days): gradual increase in body weight of the animals, both in control and treated groups | mortality and visible signs of toxicity ([7]; Wistar rats, highest dose 2000 mg/kg b. wt. oral): did not cause mortality or any visible sign of toxicity | Maximum Tolerated Dose (MTD) ([7]; Wistar rats, single oral dose, estimated): > 2000 mg/kg | LD50 ([7]; male Wistar rats, single oral dose, 14 days observation): > 2000 mg/kg b. wt
